row,SMILES,melting point
1,"CCN(Cc1ccccc1)c1ncnc2[nH]ccc12 [Example 2, Benzyl-ethyl-(7H-pyrrolo[2,3-d]pyrimidin-4-yl)-amine]",170 to 172 °C
2,"C=CCN(c1ncnc2[nH]ccc12)C1CCCC1 [Example 6, Allyl-cyclopentyl-(7H-pyrrolo[2,3-d]pyrimidin-4-yl)-amine]",173 to 175 °C
3,"CCN(c1ncnc2[nH]ccc12)C1CCCCCC1 [Example 14, Cycloheptyl-ethyl-(7H-pyrrolo[2,3-d]pyrimidin-4-yl)-amine]",168 to 169 °C
4,"CCN(c1ncnc2[nH]ccc12)C1CCCCCCC1 [Example 15, Cyclooctyl-ethyl-(7H-pyrrolo[2,3-d]pyrimidin-4-yl)-amine]",155 to 156 °C
5,"CCC(C)N(C)c1ncnc2[nH]ccc12 (centres unmarked) [Example 26, sec-Butyl-methyl-(7H-pyrrolo[2,3-d]pyrimidin-4-yl)-amine]",146 to 148 °C
6,"Cc1cc2c(N(C)C3CCCCC3)ncnc2[nH]1 [Example 87, Cyclohexyl-methyl-(6-methyl-7H-pyrrolo[2,3-d]pyrimidin-4-yl)-amine]",221 °C (dec.)
7,"c1nc(SC2CCCCC2)c2cc[nH]c2n1 [Example 90, 4-Cyclohexylsulfanyl-7H-pyrrolo[2,3-d]pyrimidine]",162 to 163 °C
8,"Clc1c[nH]c2ncnc(N3CCCCC3)c12 [Example 91, 5-Chloro-4-piperidin-1-yl-7H-pyrrolo[2,3-d]pyrimidine]",170 to 172 °C
9,"CN(c1ncnc2[nH]cc(Cl)c12)C1CCCCCC1 [Example 93, (5-Chloro-7H-pyrrolo[2,3-d]pyrimidin-4-yl)-cycloheptyl-methyl-amine]",152 to 153 °C
10,"CN(c1ncnc2[nH]cc(Cl)c12)C1CCCCCCC1 [Example 94, (5-Chloro-7H-pyrrolo[2,3-d]pyrimidin-4-yl)-cyclooctyl-methyl-amine]",151 to 153 °C
11,"CN(c1ncnc2[nH]cc(-c3ccccc3)c12)C1CCCCC1 [Example 96, Cyclohexyl-methyl-(5-phenyl-7H-pyrrolo[2,3-d]pyrimidin-4-yl)amine]",200 °C
12,"CN(c1ncnc2[nH]cc(-c3ccc(F)cc3)c12)C1CCCCC1 [Example 97, Cyclohexyl-[5-(4-fluoro-Phenyl)-7H-pyrrolo[2,3-d]pyrimidin-4-yl]-methyl-amine]",220 °C
13,"N#Cc1c[nH]c2ncnc(N3CCCCC3)c12 [Example 100, 4-Piperidin-1-yl-7H-pyrrolo[2,3-d]pyrimidine-5-carbonitrile]",209 to 211 °C
14,"C#Cc1c[nH]c2ncnc(N3CCCCC3)c12 [Example 101, 5-Ethynyl-4-piperidin-1-yl-7H-pyrrolo[2,3-d]pyrimidine]",179 to 181 °C
